Data published in patent publication US20090047221A1 (NIPRI LIMITED, priority 2004, published 2009).

Columns and labels:
Type in all cases: cell-based
[1] = tested on: PNT2; test: MTT assay (anti-proliferative activity); conditions: Homo sapiens, PNT2
From the text: (§1) The MTT assay was used initially to determine the anti-proliferative activity of the test compounds. In the MTT assay a yellow thiazolyl blue tetrazolium bromide salt (MTT) is reduced, in metabolically active cells, to form insoluble purple formazan crystals which are solubilised by the addition of dimethyl sulphoxide (DMSO). Absorbance readings can then be determined spectrophotometrically and a relationship established between control untreated cells and drug treated cells enabling the quantification of anti-proliferative changes as a result of drug treatment (Mosmann, 1983).
(§2) Wells containing medium only were used as blanks. Following the attachment period, cells were treated with appropriate drug concentrations (20 μl added per well). 40 mg/ml stock drug solutions, in DMSO, were stored at −20° C. and on the day of drug treatment working solutions of 4 mg/ml were prepared in medium which was further diluted to achieve final drug dilution volumes of 20 μl. Initial screening was determined over a concentration range of 1-200 μg/ml. For potent compounds the assay was repeated over a narrower concentration range to determine accurate IC50 values. Cells were exposed to drug for 96 h continual exposure (37° C., 5% CO2). Following the 96 h incubation, 50 μl MTT solution (1 g MTT/500 ml PBS) was added per well and the plates were further incubated for 4 h (37° C., 5% CO2). After incubation the MTT and medium was removed from the wells and 100 μl DMSO added per well. Plates were agitated on an orbital mixer platform (Stuart Scientific) for 10 minutes. Absorbance was measured at 570 nm on a Biotrak II (Amersham Bioscience) plate reader. IC50 values were calculated comparing control and drug treated cells.

[2] = tested on: HCT+/+; test: MTT assay (anti-proliferative activity)
From the text: as §1, §2

[3] = tested on: LNCAP; test: MTT assay (anti-proliferative activity); conditions: Homo sapiens, LNCaP
From the text: as §1, §2

[4] = tested on: HT29; test: MTT assay (anti-proliferative activity); conditions: Homo sapiens, HT-29
From the text: as §1, §2

[5] = tested on: H157; test: MTT assay (anti-proliferative activity); conditions: Homo sapiens, NCI-H157
From the text: as §1, §2

[6] = tested on: ZR-75-1; test: MTT assay (anti-proliferative activity); conditions: Homo sapiens, ZR-75-1
From the text: as §1, §2

[7] = tested on: RKO; test: MTT assay (anti-proliferative activity); conditions: Homo sapiens, RKO
From the text: as §1, §2

[8] = tested on: PC3; test: MTT assay (anti-proliferative activity); conditions: Homo sapiens, PC-3
From the text: as §1, §2

[9] = tested on: H23; test: MTT assay (anti-proliferative activity); conditions: Homo sapiens, NCI-H23
From the text: as §1, §2

[10] = tested on: HCT−/−; test: MTT assay (anti-proliferative activity)
From the text: as §1, §2

[11] = tested on: breast cancer (MDA-MB-468 and MCF-7 cell lines) and melanoma cell lines (MalMe3, SkMe128); test: Cell cycle analysis by flow cytometry (propidium iodide); apoptosis as cells in sub G0/G1 (pre G0) peak; conditions: following treatment with IC70 concentration of compound
Protocol: Assessment of cell cycle analysis was performed using propidium iodide staining of cells and subsequent analysis on a Beckton Dickinson flow cytometer. […] The following day the medium was removed and replaced with 5 ml medium per flask containing the appropriate drug concentrations to be tested. 40 mg/ml stock drug solutions in DMSO were stores at −20° C. and on the day off drug treatment working solutions of 4 mg/ml were prepared in medium from which the final drug dilutions were prepared. Cells were maintained in an incubator (37° C., 5% CO2) for up to 96 h post treatment. After 24, 48, 72 or 96 h time points the medium from each flask was collected, stored on ice, and the remaining cells in the flasks were trypsinised by aiding 1 ml trypsin-EDTA solution to each flask. Cells were replaced into the incubator for 10 min to allow them to detach from the plastic plate. The cells in each flask were collected by adding the appropriate medium removed from each flask back to the corresponding flask and then placing medium containing both the attached and floating cells into a 15 ml tube. Cells were centrifuged at 4° C. for 5 min at 1500 rpm and the supernatant removed from each tube. The remaining cells were washed twice in ice cold PBS and then fixed in ice cold methanol overnight at −20° C. On the day of analysis of cells each tube was centrifuged at 4° C. for 5 min at 1500 rpm and the methanol removed and the cells washed twice in ice cold PBS. 20 μl propidium iodide solution (1 mg/ml) and 20 μl RNase A (10 mg/ml solution) were added to 1 ml PBS per tube and the cells were incubated for 30 min at 37° C. Cells were analysed on the flow cytometer and cell cycle changes were assessed.

[12] = tested on: MCF-7; test: MTT assay (anti-proliferative activity); conditions: Homo sapiens, MCF7, 96 h continual exposure, read-out: IC 50 MCF-7
[13] = tested on: MDA-MB-468; test: MTT assay (anti-proliferative activity); conditions: Homo sapiens, MDA-MB-468, 96 h continual exposure, read-out: IC 50 MDA-MB-468
[14] = tested on: SkMel28; test: MTT assay (anti-proliferative activity); conditions: Homo sapiens, SK-MEL-28, 96 h continual exposure, read-out: IC 50 SkMel28
[15] = tested on: MalMe3M; test: MTT assay (anti-proliferative activity); conditions: Homo sapiens, Malme-3M, 96 h continual exposure, read-out: IC 50 MalMe3M
[16] = tested on: caspase 3 in MDA-MB-468 breast cancer cells; test: Western blotting (immunoblot), caspase 3 cleavage; conditions: concentrations similar to those required to kill MDA-MB-468 breast cancer cells
Protocol: Western blotting was used to assess drug induced changes of cellular proteins. Cells were seeded in P90 tissue culture vessels and treated with drugs at a range of concentrations for 72 and 96 h. Following incubation of cells for the required duration the medium was collected from the cells and attached cells were scraped from the tissue culture vessel and collected into the medium. Excess medium was removed by centrifugation at 4° C. for 5 minutes at […] and the supernatant removed from each tube. The remaining cells were washed twice in ice cold PBS and then incubated on ice with protein extraction buffer (10 mM Tris-HCl, 150 mM NaCl, 1 mM EDTA, 1% Triton-X, 0.1% SDS and a protease inhibitor) for 20 min. Cells were sonicated and centrifuged for 5 min at 4° C. and the supernatant removed for subsequent analysis. Protein samples were stored at −70° C. until analyses. 8, 10 or 12% acrylamide gels were prepared and used depending on size of protein to be determined. Protein concentrations were determined using the BCA™ (bicinchoninic acid) protein determination assay (Pierce) according to manufacturer's guidelines and 30-50 μg protein samples were loaded and separated on the acrylamide gels. Gels were ran at 150V for approximately 2 h at 4° C. Following separation of the protein samples each was transferred to a PVDF transfer membrane (Hybond-P) overnight at 4° C. at 40V. […]

IC50 [2]: > 561 µM
IC50 [3]: > 561 µM
IC50 [4]: 561 µM
IC50 [5]: > 561 µM
IC50 [8]: 421 µM
IC50 [10]: > 561 µM
IC50 [12]: 946 µM
IC50 [13]: 283 µM
Structure (SMILES): CC1Cc2cccc(O)c2C(=O)O1 (racemic) [ALM-9, Racemic Mellein]
IC50 [1]: 421 µM
IC50 [6]: 281 µM
IC50 [7]: 494 µM
IC50 [9]: > 561 µM
% Cells in Pre G0 phase of Cell Cycle [11]: 30.4%
IC50 [14]: 821 µM
IC50 [15]: > 960 µM
cleavage and activation of caspase 3 (immunoblot) [16]: promotes the cleavage and thus the activation of caspase 3
